Experimental data published in ChEMBL document CHEMBL1671629, “Penetration of chlorhexidine into human skin” (Antimicrob Agents Chemother, 2008).

What was measured:
Assay type in all cases: ADME, tissue-based
[1] = tested on: Zone of skin; test: Drug permeation in deeper <300 micrometer sections of human skin using Franz-cell skin model assessed as compound penetration per mg tissue exposed to 2% wt/vol of compound administered topically measured after 30 mins exposure by HPLC; conditions: 0.5 h
[2] = tested on: Zone of skin; test: Drug permeation in top 100 micrometer sections of human skin using Franz-cell skin model assessed as compound penetration per mg tissue exposed to 2% wt/vol of compound administered topically measured after 2 mins exposure by HPLC
[3] = tested on: Zone of skin; test: Drug permeation in top 100 micrometer sections of human skin using Franz-cell skin model assessed as compound penetration per mg tissue exposed to 2% wt/vol of compound administered topically measured after 24 hrs exposure by HPLC
[4] = tested on: Zone of skin; test: Drug permeation in top 100 micrometer sections of human skin using Franz-cell skin model assessed as compound penetration per mg tissue exposed to 2% wt/vol of compound administered topically measured after 30 mins exposure by HPLC; conditions: 0.5 h
[5] = tested on: Zone of skin; test: Drug permeation in deeper <300 micrometer sections of human skin using Franz-cell skin model assessed as compound penetration per mg tissue exposed to 2% wt/vol of compound administered topically measured after 2 mins exposure by HPLC
[6] = tested on: Zone of skin; test: Drug permeation in deeper <300 micrometer sections of human skin using Franz-cell skin model assessed as compound penetration per mg tissue exposed to 2% wt/vol of compound administered topically measured after 24 hrs exposure by HPLC

Drug uptake [1]: < 0.002 µg
tissue concentration [2]: 0.157 µg/mg
tissue concentration [3]: 7.88 µg/mg
tissue concentration [4]: 0.077 µg/mg
Drug uptake [5]: < 0.002 µg
Drug uptake [6]: < 1 µg
Structure (SMILES): N=C(NCCCCCCNC(=N)NC(=N)Nc1ccc(Cl)cc1)NC(=N)Nc1ccc(Cl)cc1.O=C(O)[C@H](O)[C@@H](O)[C@H](O)[C@H](O)CO
